{"source": "patent US20250275995A1", "about": "“NICOTINAMIDE RIBOSIDE DOSAGE REGIMEN FOR TREATING PARKINSON'S DISEASE” (VESTLANDETS INNOVASJONSSELSKAP AS (VIS), priority 2022, published 2025)", "format_in_all_cases": "in vivo, human", "key": {"[1]": {"tested_on": "individuals with PD", "test": "NR-SAFE: vital signs, body metrics, ECG", "method": "At screening for trial entry, candidates underwent physical and neurological examination. Enrolled participants were assessed by physical visits by a movement disorder specialist at baseline (visit 1, V1), day 7 (V4), day 14 (V5), day 21 (V6) and day 28 (V7). At baseline and day 28 participants underwent additional assessment with the Movement Disorder Society Unified Parkinson's disease Rating Scale section I-IV (MDS-UPDRS). At all physical visits an electrocardiogram (ECG), vital parameters (blood pressure, pulse, weight, height) and blood samples were obtained. Additional blood samples were taken on day 3 (V2) and day 5 (V3) to assess safety. The participants were interviewed by telephone consultation by a study nurse on day 3 and day 35 to screen for additional adverse events. Participants were instructed to take their anti-Parkinson drugs as they normally would and no changes were made to anti-Parkinson drug treatment during the trial. Adverse events (AEs) were recorded by the investigating physician. These were then classified by severity according to the Common Terminology Criteria for Adverse Events v5.0 (CTCAE)^13 as either mild (1), moderate (2), severe (3), life-threatening (4) or death (5). The AE relation to the study drug was scored as unrelated (1), unlikely (2), possible (3), probable (4) or definitely (5). 13 Freites-Martinez, A., Santana, N., Arias-Santiago, S. & Viera, A. Using the Common Terminology Criteria for Adverse Events (CTCAE—Version 5.0) to Evaluate the Severity of Adverse Events of Anticancer Therapies. Actas Dermosifiliogr (Engl Ed) 112, 90-92 (2021)."}, "[2]": {"tested_on": "NAD metabolome", "test": "NR-SAFE: NAD and glutathione metabolites in frozen whole blood (NADMed assay)", "method": "Analysis was carried out by NADMed (Helsinki, Finland; www.nadmed.com). NAD and glutathione metabolites were extracted from frozen blood in a single step using a proprietary extraction procedure, and each metabolite was measured individually using optimized cyclic enzymatic assays with colorimetric detection."}, "[3]": {"tested_on": "cerebral metabolic activity", "test": "NADPARK: FDG-PET, NR-related metabolic pattern (NRRP)", "excerpt": "This novel NR-related metabolic pattern (NRRP) was characterized by multiple regional metabolic changes, including bilateral metabolic reductions in the caudate and putamen, extending into the adjacent globus pallidus, and in the thalamus (FIG. 1D-E). […] The NRRP expression can be derived from the FDG-PET data, as previously described (Cell Metab. 2022 Mar. 1; 34(3):396-407.e6). For example, a NR-related metabolic pattern (NRRP) can be identified by using ordinal trends/canonical variates analysis (OrT/CVA), a supervised form of principal component analysis (PCA) (Habeck et al., (2005), Neural Computation 17, 1602-1645). […] Likewise, the reliability of the voxel loadings (i.e., region weights) on the resulting network topography can be assessed using bootstrap resampling procedures (Habeck and Stern (2010), Cell Biochemistry and Biophysics 58, 53-67; Mure et al. (2011), Neuroimage 54, 1244-1253). The analysis can be restricted to the top PC patterns, accounting for greater than 75% of the subject×voxel variance in the longitudinal data. Expression values for these PCs can then be entered singly and in all possible linear combinations to identify significant monotonic trends in the individual subject data, i.e., consistent increases (or decreases) in pattern expression across the subjects with few if any violations (p<0.05; permutation test, 1000 iterations). The resulting coefficients are applied to the corresponding PC patterns to construct the NR-related topography. […] The analysis can be performed within a population or the individual subject's gray matter brain mask defined by the FDG-PET scans, e.g., as outlined in Table 1."}, "[4]": {"conditions": "V1 (baseline), NR 3000 mg daily group, ±sd"}, "[5]": {"conditions": "V7 (day 28), NR 3000 mg daily, ±sd"}, "[6]": {"conditions": "NADMed assay, V1 to V7, 3000 mg NR daily"}}, "note": "Values joined by “and” are separate entries in the source; they are usually repeats but may differ in a detail not shown here. Equal values may be shown once.", "data": [{"smiles": "NC(=O)c1ccc[n+]([C@@H]2O[C@H](CO)[C@@H](O)[C@H]2O)c1", "note": "[NR, nicotinamide riboside]", "values": [{"measurement": "Electrocardiography (ECG)", "setting": "[1]; NR 3000 mg daily, 4 weeks", "value": "no changes of clinical significance"}, {"measurement": "changes in systolic or diastolic blood pressure, pulse or weight between visit 1 and visit 7", "setting": "[1]; NR 3000 mg daily, 4 weeks", "value": "No significant changes in systolic or diastolic blood pressure, pulse or weight"}, {"measurement": "patients who developed asymptomatic bradycardia", "setting": "[1]; NR group, 3000 mg daily, 4 weeks", "value": "Two"}, {"measurement": "heart rate of patients with asymptomatic bradycardia", "setting": "[1]; NR group, 3000 mg daily, individual patients", "value": "58 beats/min and 46 beats/min"}, {"measurement": "Diastolic blood pressure", "setting": "[1]; [4]", "value": "74.7 ± 8.49", "unit": "mmHg"}, {"measurement": "Pulse", "setting": "[1]; [4]", "value": "64.2 ± 14.67", "unit": "min⁻¹"}, {"measurement": "Systolic blood pressure", "setting": "[1]; [4]", "value": "122.1 ± 12.53", "unit": "mmHg"}, {"measurement": "Weight", "setting": "[1]; [4]", "value": "79.38 ± 11.92", "unit": "kg"}, {"measurement": "Diastolic blood pressure", "setting": "[1]; [5]", "value": "76.2 ± 6.81", "unit": "mmHg"}, {"measurement": "Pulse", "setting": "[1]; [5]", "value": "61.1 ± 12.95", "unit": "min⁻¹"}, {"measurement": "Systolic blood pressure", "setting": "[1]; [5]", "value": "122.2 ± 7.49", "unit": "mmHg"}, {"measurement": "Weight", "setting": "[1]; [5]", "value": "79.38 ± 11.79", "unit": "kg"}, {"measurement": "Diastolic blood pressure, Δ", "setting": "[1]; Δ=V7−V1, NR 3000 mg daily, ±sd", "value": "1.5 ± 8.31", "unit": "mmHg"}, {"measurement": "Pulse, Δ", "setting": "[1]; Δ=V7−V1, NR 3000 mg daily, ±sd", "value": "-3.1 ± 9.48", "unit": "min⁻¹"}, {"measurement": "Systolic blood pressure, Δ", "setting": "[1]; Δ=V7−V1, NR 3000 mg daily, ±sd", "value": "0.1 ± 8.29", "unit": "mmHg"}, {"measurement": "Weight, Δ", "setting": "[1]; Δ=V7−V1, NR 3000 mg daily, ±sd", "value": "0 ± 0.58", "unit": "kg"}, {"measurement": "increase in whole blood NAD^+ levels", "setting": "[2]; 3000 mg NR daily, 4 weeks", "value": "~3.7", "unit": "fold"}, {"measurement": "increase in whole blood NAD^+ levels, range", "setting": "[2]; 3000 mg NR daily, 4 weeks, range across individuals", "value": "1.8-5.8 fold"}, {"measurement": "increase in blood NAD^+ levels (maximum)", "setting": "[2]; 3000 mg NR daily, 4 weeks, summary statement", "value": "up to 5 fold"}, {"measurement": "whole blood GSH and GSSG", "setting": "[2]; [6]", "value": "remained unchanged"}, {"measurement": "whole blood NADH level", "setting": "[2]; [6]", "value": "marked increase"}, {"measurement": "whole blood NADP^+ and total NADP levels", "setting": "[2]; [6]", "value": "increase in NADP^+ and total NADP levels"}, {"measurement": "whole blood NADP^+/NADPH ratio", "setting": "[2]; [6]", "value": "trend towards increased NADP^+/NADPH ratio"}, {"measurement": "whole blood NAD^+ level", "setting": "[2]; [6]", "value": "marked increase"}, {"measurement": "whole blood NAD^+/NADH ratio", "setting": "[2]; [6]", "value": "overall elevated NAD^+/NADH ratio"}, {"measurement": "effect size (ES) of NRRP expression increase vs placebo", "setting": "[3]; 1000 mg NR", "value": 0.883}, {"measurement": "increase in NRRP expression (mean±SD)", "setting": "[3]; 1000 mg NR, NR treatment group", "value": "0.68±0.86"}, {"measurement": "effect of NRRP expression change on PD cerebral metabolic pattern", "setting": "[3]; NR group, 1000 mg daily, FDG-PET", "value": "partial normalization of the striatal and thalamic hypermetabolism"}]}]}
